Laboratory results published in ChEMBL document CHEMBL1201862, “PubChem BioAssay data set” (2004).
Activity calls are given as the source filed them.

Tests used:
HEK293 [1] = assay: inhibition of NOD1-driven NF-kB reporter – cell-based, luminescence, uHTS, primary screen (AID 1578); type: functional; conditions: Homo sapiens
[2] = decrease of insulin promoter-GFP reporter – imaging, high-content screening, mouse beta cells (AID 1628); type: functional; conditions: MIN6
HEK293 [3] = assay: cells; type: functional, cell-based; conditions: Homo sapiens
[4] = MIN6 cell viability loss – mouse insulinoma, cytotoxicity control, dose response (AID 2122); type: functional;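 further: confirmatory high-throughput counterscreen run to flag cytotoxic compounds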
HEK293 [5] = assay: cells; type: functional, cell-based; conditions: Homo sapiens; remark: listed apart in the source
HEK293 [6] = assay: NOD2 signaling inhibitors in MDP-stimulated cells, cell-based, uHTS, luminescence (AID 2001); type: functional; conditions: Homo sapiens
[7] = reduction of Shn3 3'UTR-driven luciferase in osteoblasts – cell-based, Clone20 osteoblasts, firefly luciferase, cherry-picked, dose response (AID 624132); type: functional;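 further: firefly luciferase luminescence from reporter carrying the Shn3 3'UTR in osteoblasts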
[8] = loss of viability in HepG2 cells – cell-based, CellTiter-Glo, cherry-picked, cytotoxicity control for Shn3 inhibitor project, dose response (AID 624134); type: functional
[9] = non-specific 3'UTR reporter inhibition in Clone20-Shn3RL – cell-based, Renilla luciferase, cherry-picked, counter-screen for Shn3 inhibitor project, dose response (AID 624133); type: functional
HEK293 [10] = assay: cells; type: functional, cell-based; conditions: Homo sapiens; remark: listed apart in the source
Genome polyprotein = Genome polyprotein (dengue virus type 2, UniProt P29990); assay: flavivirus cap methylation enzyme inhibition – biochemical, confirmation dose response, primary screen (AID 588689); type: functional
[11] = target: T1, Nuclear receptor subfamily 0 group B member 1 (Homo sapiens, UniProt P51843); assay: Luminescence-based cell-based high throughput dose response assay for inhibitors of the orphan nuclear receptor subfamily 0, group B, member 1 (DAX1; NR0B1). [Related pubchem assays (depositor defined):AID504766, AID504790]; type: functional
T1 sequence (P51843 whole entry): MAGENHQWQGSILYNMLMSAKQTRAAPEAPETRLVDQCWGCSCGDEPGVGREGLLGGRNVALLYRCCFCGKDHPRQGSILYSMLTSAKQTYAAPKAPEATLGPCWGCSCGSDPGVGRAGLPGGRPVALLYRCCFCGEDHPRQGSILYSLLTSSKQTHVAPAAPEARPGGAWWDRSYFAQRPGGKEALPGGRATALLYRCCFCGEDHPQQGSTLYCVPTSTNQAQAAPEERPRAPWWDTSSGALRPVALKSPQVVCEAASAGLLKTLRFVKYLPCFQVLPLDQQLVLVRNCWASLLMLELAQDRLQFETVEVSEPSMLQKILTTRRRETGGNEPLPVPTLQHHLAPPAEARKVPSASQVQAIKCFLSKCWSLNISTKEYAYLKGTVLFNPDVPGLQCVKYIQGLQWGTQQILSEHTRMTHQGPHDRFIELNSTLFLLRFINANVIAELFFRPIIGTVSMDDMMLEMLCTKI

[12] = target: T2, Lysine-specific demethylase 4C (Homo sapiens, UniProt Q9H3R0); assay: inhibition of JMJD2C H3K9me3 demethylation – biochemical, DELFIA europium, cherry-picked samples, dose response (AID 488835); type: functional
T2 sequence (Q9H3R0 whole entry): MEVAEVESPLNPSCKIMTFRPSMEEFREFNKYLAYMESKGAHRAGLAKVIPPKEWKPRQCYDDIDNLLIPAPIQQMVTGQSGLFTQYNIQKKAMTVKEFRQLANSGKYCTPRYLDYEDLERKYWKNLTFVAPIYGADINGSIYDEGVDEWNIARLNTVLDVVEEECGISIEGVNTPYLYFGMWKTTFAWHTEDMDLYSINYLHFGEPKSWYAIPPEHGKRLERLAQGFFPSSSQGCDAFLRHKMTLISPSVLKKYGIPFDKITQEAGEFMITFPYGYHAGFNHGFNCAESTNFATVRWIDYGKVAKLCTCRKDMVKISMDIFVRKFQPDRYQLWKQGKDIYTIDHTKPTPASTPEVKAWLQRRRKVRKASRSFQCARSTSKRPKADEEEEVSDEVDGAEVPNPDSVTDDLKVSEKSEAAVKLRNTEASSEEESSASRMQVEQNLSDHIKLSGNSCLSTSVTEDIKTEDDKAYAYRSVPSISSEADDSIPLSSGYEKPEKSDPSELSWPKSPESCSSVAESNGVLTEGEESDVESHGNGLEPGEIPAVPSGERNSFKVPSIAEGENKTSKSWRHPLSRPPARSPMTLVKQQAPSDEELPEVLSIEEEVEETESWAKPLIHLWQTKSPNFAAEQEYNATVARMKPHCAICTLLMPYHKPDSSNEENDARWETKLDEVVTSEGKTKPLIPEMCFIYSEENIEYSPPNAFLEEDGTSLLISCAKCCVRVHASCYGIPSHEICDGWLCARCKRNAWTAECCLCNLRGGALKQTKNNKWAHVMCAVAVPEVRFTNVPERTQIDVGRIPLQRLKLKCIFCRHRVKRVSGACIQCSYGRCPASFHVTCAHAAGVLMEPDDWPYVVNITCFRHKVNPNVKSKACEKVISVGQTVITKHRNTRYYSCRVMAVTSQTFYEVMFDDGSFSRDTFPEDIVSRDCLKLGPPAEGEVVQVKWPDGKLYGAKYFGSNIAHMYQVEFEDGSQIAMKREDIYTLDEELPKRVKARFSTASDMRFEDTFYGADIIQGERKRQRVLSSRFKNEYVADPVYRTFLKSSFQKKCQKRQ

[13] = target: Eukaryotic translation initiation factor 4E (Mus musculus, UniProt P63073); assay: blockers of eIF4G binding by eIF4E – biochemical, TR-FRET, dose response (AID 855); type: functional;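 further: potency for disrupting eIF4E binding to eIF4GI seen as loss of FRET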
Trypsin = Trypsin (Sus scrofa, UniProt P00761); assay: trypsin protease activity blockade – biochemical, quenched peptide fluorescence, cherry-pick, selectivity assay for Rce1 protease inhibitor project, dose response (AID 488789)
CAAX prenyl protease 2 = target: T3, CAAX prenyl protease 2 (Homo sapiens, UniProt Q9Y256); assay: inhibition of Ras-converting CAAX protease Rce1 – biochemical, yeast membranes, quenched-peptide fluorescence, cherry-pick, dose response (AID 588849)
T3 sequence (Q9Y256 whole entry): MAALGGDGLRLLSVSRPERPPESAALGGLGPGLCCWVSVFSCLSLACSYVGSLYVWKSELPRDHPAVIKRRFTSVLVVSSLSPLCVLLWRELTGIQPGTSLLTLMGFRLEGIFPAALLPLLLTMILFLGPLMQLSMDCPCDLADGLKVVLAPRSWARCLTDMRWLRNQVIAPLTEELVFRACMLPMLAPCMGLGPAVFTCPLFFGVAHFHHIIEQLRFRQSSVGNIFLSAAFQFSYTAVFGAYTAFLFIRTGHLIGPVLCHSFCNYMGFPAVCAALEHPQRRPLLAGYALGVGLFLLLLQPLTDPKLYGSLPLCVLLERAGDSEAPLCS

Caspase-3 = target: T4, Caspase-3 (Homo sapiens, UniProt P42574); type: functional;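 further: Dose-response selectivity test against caspase-3 for candidate inhibitors of sentrin-specific proteases (SENPs)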
T4 sequence (P42574 whole entry): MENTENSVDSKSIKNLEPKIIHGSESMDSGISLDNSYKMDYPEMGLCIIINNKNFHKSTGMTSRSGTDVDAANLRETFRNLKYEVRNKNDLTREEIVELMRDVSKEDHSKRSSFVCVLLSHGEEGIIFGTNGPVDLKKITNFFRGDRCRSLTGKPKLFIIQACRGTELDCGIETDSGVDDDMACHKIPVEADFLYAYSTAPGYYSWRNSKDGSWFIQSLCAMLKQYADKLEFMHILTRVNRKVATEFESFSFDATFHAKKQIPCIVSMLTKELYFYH

[14] = target: T5, Sentrin-specific protease 7 (Homo sapiens, UniProt Q9BQF6); type: functional;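 further: Luminescence-based dose-response confirmation of ultra-high-throughput screening hits, measuring inhibition of SENP7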
T5 sequence (Q9BQF6 whole entry): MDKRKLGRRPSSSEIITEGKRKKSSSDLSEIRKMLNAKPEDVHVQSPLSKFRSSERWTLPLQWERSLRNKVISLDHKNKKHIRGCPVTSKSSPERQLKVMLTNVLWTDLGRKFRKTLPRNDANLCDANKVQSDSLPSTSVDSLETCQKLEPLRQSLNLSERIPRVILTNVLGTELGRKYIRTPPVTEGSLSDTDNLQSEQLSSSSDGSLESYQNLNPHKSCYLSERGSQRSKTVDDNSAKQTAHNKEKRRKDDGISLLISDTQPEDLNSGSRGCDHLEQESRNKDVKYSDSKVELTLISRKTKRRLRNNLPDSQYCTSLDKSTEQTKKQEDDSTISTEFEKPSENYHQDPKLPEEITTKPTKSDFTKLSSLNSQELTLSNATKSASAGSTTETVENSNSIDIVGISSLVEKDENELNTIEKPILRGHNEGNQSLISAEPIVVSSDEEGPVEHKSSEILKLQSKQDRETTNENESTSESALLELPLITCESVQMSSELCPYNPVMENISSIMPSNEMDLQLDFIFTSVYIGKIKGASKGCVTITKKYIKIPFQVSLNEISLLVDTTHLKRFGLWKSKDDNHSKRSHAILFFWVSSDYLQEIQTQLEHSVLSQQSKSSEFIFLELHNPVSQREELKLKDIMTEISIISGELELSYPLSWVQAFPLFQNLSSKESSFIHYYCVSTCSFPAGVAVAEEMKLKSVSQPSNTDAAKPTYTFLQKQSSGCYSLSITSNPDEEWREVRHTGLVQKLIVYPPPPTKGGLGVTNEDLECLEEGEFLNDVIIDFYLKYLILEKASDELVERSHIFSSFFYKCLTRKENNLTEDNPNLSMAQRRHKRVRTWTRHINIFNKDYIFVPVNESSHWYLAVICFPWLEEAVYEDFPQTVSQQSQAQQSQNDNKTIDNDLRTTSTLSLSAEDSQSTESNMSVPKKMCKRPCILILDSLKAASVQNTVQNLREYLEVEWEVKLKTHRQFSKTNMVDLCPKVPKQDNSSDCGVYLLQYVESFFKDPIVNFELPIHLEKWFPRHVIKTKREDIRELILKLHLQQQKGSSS

[15] = target: T6, Sentrin-specific protease 6 (Homo sapiens, UniProt Q9GZR1); type: functional;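 further: Luminescence-based dose-response confirmatory assay of SENP6 inhibition, following up an ultra-high-throughput screen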
T6 sequence (Q9GZR1 whole entry): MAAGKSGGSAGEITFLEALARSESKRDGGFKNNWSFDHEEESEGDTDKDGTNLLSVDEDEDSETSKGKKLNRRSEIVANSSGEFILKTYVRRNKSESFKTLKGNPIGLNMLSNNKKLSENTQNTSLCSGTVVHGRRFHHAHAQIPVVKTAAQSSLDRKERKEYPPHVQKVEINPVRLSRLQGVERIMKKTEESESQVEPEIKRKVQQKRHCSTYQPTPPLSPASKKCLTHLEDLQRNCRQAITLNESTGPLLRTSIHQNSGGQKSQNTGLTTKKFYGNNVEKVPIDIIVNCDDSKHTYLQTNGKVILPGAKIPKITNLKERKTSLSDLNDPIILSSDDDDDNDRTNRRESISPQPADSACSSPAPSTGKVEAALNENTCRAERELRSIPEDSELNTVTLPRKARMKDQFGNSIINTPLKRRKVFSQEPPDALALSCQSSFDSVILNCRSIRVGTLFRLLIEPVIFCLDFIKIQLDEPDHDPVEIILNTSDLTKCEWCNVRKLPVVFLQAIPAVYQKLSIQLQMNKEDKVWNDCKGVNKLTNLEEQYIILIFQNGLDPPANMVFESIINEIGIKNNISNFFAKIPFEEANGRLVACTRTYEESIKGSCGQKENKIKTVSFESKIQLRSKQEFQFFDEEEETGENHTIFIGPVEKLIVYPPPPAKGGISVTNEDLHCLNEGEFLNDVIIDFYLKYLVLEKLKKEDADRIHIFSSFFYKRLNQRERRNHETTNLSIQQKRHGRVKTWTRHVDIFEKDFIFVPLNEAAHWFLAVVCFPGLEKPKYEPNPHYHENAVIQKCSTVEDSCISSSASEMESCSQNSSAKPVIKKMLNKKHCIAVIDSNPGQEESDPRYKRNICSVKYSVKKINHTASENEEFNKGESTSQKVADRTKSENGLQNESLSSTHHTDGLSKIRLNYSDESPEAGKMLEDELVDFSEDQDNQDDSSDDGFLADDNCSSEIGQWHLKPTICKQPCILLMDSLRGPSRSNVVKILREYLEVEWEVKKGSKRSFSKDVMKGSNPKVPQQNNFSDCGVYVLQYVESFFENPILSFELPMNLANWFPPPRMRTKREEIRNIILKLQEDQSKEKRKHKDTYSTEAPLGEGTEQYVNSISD

[16] = target: T7, Sentrin-specific protease 8 (Homo sapiens, UniProt Q96LD8); type: functional;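 further: luminescence read-out of SENP8 inhibition, dose-response confirmation following an ultra-high-throughput screen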
T7 sequence (Q96LD8 whole entry): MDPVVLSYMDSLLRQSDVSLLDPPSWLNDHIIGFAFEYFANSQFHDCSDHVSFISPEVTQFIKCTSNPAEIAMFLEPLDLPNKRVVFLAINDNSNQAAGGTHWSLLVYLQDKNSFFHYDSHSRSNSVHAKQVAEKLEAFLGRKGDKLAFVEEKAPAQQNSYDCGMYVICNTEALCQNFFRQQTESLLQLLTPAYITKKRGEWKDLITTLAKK

INS1 = assay: INS-1E survival protection against cytokine death – cell-based, luminescence, retest, dose response (AID 449756); type: functional; conditions: Rattus norvegicus;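 further: cell death triggered by IL-1 beta plus TNF-alpha plus IFN-gamma mixture; protective hits raise ATP signal compared with cytokine alone wells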

Chain of Trypsin (P00761 whole entry): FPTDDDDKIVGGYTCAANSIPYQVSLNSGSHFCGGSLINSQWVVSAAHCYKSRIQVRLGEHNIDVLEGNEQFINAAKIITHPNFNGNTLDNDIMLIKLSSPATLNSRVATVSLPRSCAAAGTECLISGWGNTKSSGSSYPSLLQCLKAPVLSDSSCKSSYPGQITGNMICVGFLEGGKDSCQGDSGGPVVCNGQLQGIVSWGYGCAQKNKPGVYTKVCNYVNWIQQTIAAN
Chain of Eukaryotic translation initiation factor 4E (P63073 whole entry): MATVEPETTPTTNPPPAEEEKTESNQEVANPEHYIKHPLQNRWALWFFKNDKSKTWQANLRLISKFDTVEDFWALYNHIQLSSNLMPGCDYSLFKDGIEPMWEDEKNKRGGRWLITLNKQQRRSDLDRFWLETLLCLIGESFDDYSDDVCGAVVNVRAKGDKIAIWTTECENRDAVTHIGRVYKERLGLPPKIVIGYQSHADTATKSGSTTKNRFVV
Chain of Genome polyprotein (P29990 2492-3391 limits assumed): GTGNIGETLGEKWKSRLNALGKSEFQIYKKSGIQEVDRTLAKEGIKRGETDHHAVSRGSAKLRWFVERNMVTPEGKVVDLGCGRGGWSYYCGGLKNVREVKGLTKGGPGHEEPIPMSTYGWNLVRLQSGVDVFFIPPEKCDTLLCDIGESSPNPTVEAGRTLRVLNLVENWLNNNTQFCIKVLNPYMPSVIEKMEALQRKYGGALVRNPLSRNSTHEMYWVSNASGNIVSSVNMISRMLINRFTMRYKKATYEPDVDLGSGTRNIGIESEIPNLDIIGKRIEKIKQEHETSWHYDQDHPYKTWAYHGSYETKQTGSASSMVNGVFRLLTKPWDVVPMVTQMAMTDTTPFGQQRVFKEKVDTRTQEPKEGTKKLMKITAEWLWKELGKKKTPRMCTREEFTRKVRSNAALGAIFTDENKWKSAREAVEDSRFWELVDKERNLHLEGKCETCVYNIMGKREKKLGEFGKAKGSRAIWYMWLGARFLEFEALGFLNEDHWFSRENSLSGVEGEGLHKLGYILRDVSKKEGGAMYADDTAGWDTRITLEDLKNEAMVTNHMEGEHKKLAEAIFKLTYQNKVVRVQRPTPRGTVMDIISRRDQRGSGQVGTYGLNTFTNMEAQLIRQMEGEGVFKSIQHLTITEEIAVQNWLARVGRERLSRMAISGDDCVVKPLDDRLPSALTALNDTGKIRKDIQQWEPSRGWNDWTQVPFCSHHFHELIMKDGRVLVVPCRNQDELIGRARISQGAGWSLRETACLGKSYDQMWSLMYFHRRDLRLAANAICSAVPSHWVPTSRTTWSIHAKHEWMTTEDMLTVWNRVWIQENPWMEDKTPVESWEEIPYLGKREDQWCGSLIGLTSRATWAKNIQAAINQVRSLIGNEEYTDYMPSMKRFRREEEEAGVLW

CCN1CCN(Cc2ccc(NC(=O)c3ccc(C)c(NC(=O)C(=O)c4c[nH]c5ccccc45)c3)cc2C(F)(F)F)CC1
EC50 (HEK293 [1]): 17.2 µM (active)
IC50 [2]: 2.15 µM (active)
IC50 (HEK293 [3]): 4.96 µM (active)
IC50 [4]: 1.09 µM (active)
IC50 (HEK293 [5]): 18.5 µM (active)
IC50 (HEK293 [6]): 13.1 µM (inactive)
AC50 [7]: 7.49 µM (active)
AC50 [8]: 9.8 µM (active)
AC50 [9]: 3.42 µM (active)

CCOc1cc(/C=C2\C(=O)NC(=O)N(C)C2=O)cc([N+](=O)[O-])c1O
IC50 (HEK293 [10]): 51.7 µM (inactive)
IC50 (Genome polyprotein): 19.9 µM (active)
IC50 [11]: > 67.5 µM (inactive)

COc1ccc(CNCC(=O)Nc2sccc2C#N)cc1
AC50 [12]: 25 µM (active)

COc1ccc(CC2C(=O)NC(=O)N(c3ccccc3)C2=O)c(OC)c1 (stereo not drawn)
IC50 [13]: > 64 µM (inactive)
AC50 [12]: 7.62 µM (active)

NS(=O)(=O)c1ccc(CCNC(=O)c2ccc3ccccc3n2)cc1
AC50 (Trypsin): 4.75 µM (active)
AC50 (CAAX prenyl protease 2): 4.74 µM (active)

CCOc1ccc2nc(NC(=O)CSc3cnn[nH]3)sc2c1
IC50 (Caspase-3): 16.3 µM (active)
IC50 [14]: 11.7 µM (active)
IC50 [15]: 32.8 µM (active)
IC50 [16]: 44.1 µM (active)

O=[N+]([O-])c1ccc(N2CCN(C(S)=NCc3ccc(Cl)cc3)CC2)cc1
IC50 [2]: 1.85 µM (active)
IC50 [4]: 2.83 µM (active)
AC50 (INS1): 6.14 µM (active)

CCOc1cc(C=C2C(=O)NC(=O)NC2=O)cc([N+](=O)[O-])c1O
AC50 [12]: 2.49 µM (active)

CCN(CC)N=Nc1cccc(NC(C)=O)c1
IC50 (HEK293 [10]): > 67.5 µM (inactive)
IC50 [11]: > 67.5 µM (inactive)

O=C(O)c1ccc(N/N=C/c2ccc(-c3ccccc3Cl)o2)cc1
AC50 (CAAX prenyl protease 2): 54.5 µM (active)
